Columns and labels:
[1] = literature, in words; cited from earlier work
[2] = system: ADP-induced aggregation of blood platelet-rich plasma; experiment: In Vivo/In Vitro platelet aggregation (ADP) after I.P. dosing of rabbits; conditions: Oryctolagus cuniculus, ip, 2 h, dose for 50% inhibition of aggregation, one to two hours after dosing
Description: (§1) *In vivo/In vitro testing:
(§2) Before dosing the animals, blood samples are taken. The blood is centrifuged to obtain the blood platelet-rich plasma. Aggregation of this plasma is induced with ADP or collagen. This is the control.
(§3) The animals are then dosed with the compounds to be tested (orally or parenterally). Depending upon the route of administration, one to two hours are allowed to elapse after dosing. Blood is drawn and the same procedure employed as for the control is untreated animals.
The dose required to produce 50% inhibition of the aggregation is determined by dose response data obtained in this manner.

[3] = system: ADP-induced aggregation of blood platelet-rich plasma; experiment: In Vivo/In Vitro platelet aggregation (ADP) after P.O. dosing of dogs; conditions: one to two hours after dosing
Description: as §1, §2, §3

| Structure (SMILES) | antihypertensive / hypotensive activity of prior art compounds [1] | ED50 [2] | In Vivo/In Vitro Dogs P.O. 5 mg./kg. ADP % Inhibition [3] |
| --- | --- | --- | --- |
| c1ccc2c(c1)CN1CCNC1=N2 [SPC2] | potent antihypertensive activity in rats, dogs, cats and rabbits |  |  |
| CC1c2ccccc2N=C2NC(=O)CN21 (stereo not drawn) [Compound 29] |  | 7 mg/kg | 35% |

Reference: US3983120A, “Process for the preparation of optionally substituted 1,2,3,5-tetrahydroimidazo[2,1-b]quinazolin-2-ones” (Bristol-Myers Company, priority 1974, dated 1976)
